Laboratory results published in patent publication US20160145242A1, “PHENYLIMIDAZOLE DERIVATIVE, AND THERAPEUTIC MEDICINE OR PREVENTIVE MEDICINE FOR INFLAMMATORY DISEASE, ETC” (NIPPON SODA CO., LTD., priority 2013, published 2016).

Key:
[1] = tested on: mouse model of retinal light disorders; experiment: Retinal light disorder model test (ONL thickness); format: in vivo; conditions: BALB/cCr male mouse, 30 mg/kg oral 30 minutes before 2 hours white light, eyes taken after 4 days
Procedure: (Retinal Light Disorder Model Test)
The usefulness (improvement rate with respect to retinal light disorders) of the compound of the invention was evaluated using a mouse model of retinal light disorders, generally used as a model of retinal light disorders, (Investigative Ophthalmology & Visual Science, 2002; vol. 43; pp. 1162 to 1167). Here, the improvement rate with respect to the retinal light disorders was calculated based on the thickness of an outer nuclear layer (hereinafter, referred to as “ONL”), which is strongly interfered especially by light application among a retinal cell layers, in a tissue specimen of a perpendicular surface of an eyeball.
Moreover, in the present test, the ONL of a light application group to which only a base was administered was degraded to 30% to 50% of a normal light group.
A test compound was dissolved or suspended in a solvent (1% (w/v) methyl cellulose aqueous solution) and then an administration liquid was prepared so that the test compound to be 30 mg/kg body weight. The dose was set to 10 ml/kg body weight.
A 5-week-old BALB/cCr-based male mouse (weight of approximately 20 g) was bred in a dark place for 48 hours. Subsequently, the test compound administration liquid was orally administered (30 mg/kg). After 30 minutes, […] of white light was continuously applied to the mouse for 2 hours. Next, the mouse was bred in a breeding room with 50 lux of light for 4 days.
An anesthetic (secobarbital sodium) was intraperitoneally administered to anesthetize the mouse and then the mouse was exsanguinated to die. The top portion of the right eyeball was marked with a thread and the eyeball was extracted. […]
The ONL thickness in the tissue specimen was measured for every 200 μm between the optic nerve papilla to where upwardly spaced by 1 mm from the optic nerve papilla using Lumina Vision. The area (AUC) from the optic nerve papilla to where upwardly spaced by 1 mm from the optic papilla in the graph was calculated as an ONL area. […]

[2] = target: T1, guinea pig lung-derived leukotriene A4 hydrolase (Cavia porcellus, UniProt P19602); experiment: Leukotriene A4 hydrolase activity inhibitory action; format: biochemical; conditions: read-out: leukotriene A4 hydrolase activity inhibition rate
T1 construct: guinea pig lung-derived leukotriene A4 hydrolase; from tissue; host or cells: Dunkin-Hartley guinea pig lung
T1 sequence (P19602 1-611): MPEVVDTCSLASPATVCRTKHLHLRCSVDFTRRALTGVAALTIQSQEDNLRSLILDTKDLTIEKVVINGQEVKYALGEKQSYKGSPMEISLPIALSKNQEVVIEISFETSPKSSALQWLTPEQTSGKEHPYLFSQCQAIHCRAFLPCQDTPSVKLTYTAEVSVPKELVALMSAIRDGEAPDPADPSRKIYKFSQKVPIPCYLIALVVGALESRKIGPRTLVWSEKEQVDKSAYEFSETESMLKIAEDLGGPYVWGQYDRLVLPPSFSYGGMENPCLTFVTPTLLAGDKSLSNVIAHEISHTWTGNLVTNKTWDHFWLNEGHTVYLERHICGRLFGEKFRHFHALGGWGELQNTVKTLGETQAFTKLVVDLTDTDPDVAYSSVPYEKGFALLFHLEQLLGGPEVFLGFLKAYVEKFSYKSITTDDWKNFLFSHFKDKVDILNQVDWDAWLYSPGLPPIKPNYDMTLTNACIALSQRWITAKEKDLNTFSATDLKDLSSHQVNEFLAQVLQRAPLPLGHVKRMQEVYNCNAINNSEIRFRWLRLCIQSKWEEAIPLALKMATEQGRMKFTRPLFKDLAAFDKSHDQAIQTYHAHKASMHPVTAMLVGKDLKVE
Procedure: The inhibitory action of the compound according to the present invention with respect to the activity of the present enzyme was examined using guinea pig lung-derived leukotriene A4 hydrolase.
Dunkin-Hartley guinea pig lung-derived leukotriene A4 hydrolase was reacted with […] of leukotriene A4 and the amount of leukotriene B4 which was a reaction product was measured by an enzyme-linked immunosorbent assay. 3 μM of the compound of the present invention dissolved in dimethyl sulfoxide was added to the reaction system and the inhibition rate of leukotriene B4 generation (leukotriene A4 hydrolase activity inhibition rate) was measured.

Question: Which results are given for `CC(=O)N1CCN(c2ccc(N)c(-n3ccnc3)c2)CC1` [Compound 1-1, 4-acetyl-1-(4-amino-3-imidazole-1-yl-phenyl)piperazine]?
Answer: ONL thickness improvement rate [1]: 100.6%; inhibition at 3 µM [2]: 14%
